Measurements reported in patent US20230126893A1, “[(1,4,5-TRISUBSTITUTED-1H-PYRAZOL-3-YL)SULFANYL]ACETIC ACID DERIVATIVES, SALTS THEREOF, AND USE THEREOF AS ACTIVE HERBICIDAL INGREDIENTS” (BAYER AKTIENGESELLSCHAFT, priority 2020, published 2023).

Test system: Echinochloa crus-galli
Experiment: Pre-emergence herbicidal effect against ECHCG
Format: in vivo
Conditions: 1280 g/ha, visual score after 3 weeks, 100% = plants have died, 0% = like control plants
Excerpt: (§1) 1. Pre-emergence herbicidal effect and crop plant compatibility Seeds of monocotyledonous and dicotyledonous weed plants and crop plants are laid out in sandy loam soil in wood-fibre pots and covered with soil. The compounds of the invention, formulated in the form of wettable powders (WP) or as emulsion concentrates (EC), are then applied to the surface of the covering soil as aqueous suspension or emulsion at a water application rate equating to 600 to 800 L/ha with addition of 0.2% wetting agent. After the treatment, the pots are placed in a greenhouse and kept under good growth conditions for the trial plants. The damage to the test plants is scored visually after a test period of 3 weeks by comparison with untreated controls (herbicidal activity in percent (%): 100% activity=the plants have died, 0% activity=like control plants). [table]

| Structure (SMILES) | Pre-emergence action against ECHCG [%] |
| --- | --- |
| O=C(O)CSc1nn(-c2cccc(F)c2F)c(-c2cncnc2)c1Br [III-005] | 90 |

Test system: Poa annua
Experiment: Pre-emergence herbicidal effect against POAAN
Format: in vivo
Conditions: 1280 g/ha, visual score after 3 weeks, 100% = plants have died, 0% = like control plants
Excerpt: as §1

| Structure (SMILES) | Pre-emergence action against POAAN [%] |
| --- | --- |
| COC(=O)CN(C)C(=O)CSc1nn(-c2ccccc2F)c(-c2cccnc2)c1Br [VII-008] | 90 |
| COC(=O)CNC(=O)CSc1nn(-c2ccccc2F)c(-c2ccc(F)c(F)c2)c1[N+](=O)[O-] [VII-004] | 100 |
| O=C(O)CSc1nn(-c2cccc(F)c2F)c(-c2cncnc2)c1Br [III-005] | 100 |
| CCOC(=O)CSc1nn(-c2ccccc2F)c(-c2ccc(Br)nc2)c1Br [II-015] | 90 |

Test system: Setaria viridis
Experiment: Pre-emergence herbicidal effect against SETVI
Format: in vivo
Conditions: 1280 g/ha, visual score after 3 weeks, 100% = plants have died, 0% = like control plants
Excerpt: as §1

| Structure (SMILES) | Pre-emergence action against SETVI [%] |
| --- | --- |
| O=C(O)CSc1nn(-c2cccc(F)c2F)c(-c2cncnc2)c1Br [III-005] | 90 |

Test system: Tripleurospermum inodorum
Experiment: Pre-emergence herbicidal effect against MATIN
Format: in vivo
Conditions: 1280 g/ha, visual score after 3 weeks, 100% = plants have died, 0% = like control plants
Excerpt: as §1

| Structure (SMILES) | Pre-emergence action against MATIN [%] |
| --- | --- |
| O=C(O)CSc1nn(-c2cccc(F)c2F)c(-c2cncnc2)c1Br [III-005] | 90 |
| CCOC(=O)CSc1nn(-c2ccc(Cl)cc2Cl)c(-c2ccc(F)c(F)c2)c1Br [Example I-026] | 100 |
| CCOC(=O)CSc1nn(-c2ccccc2F)c(-c2ccc(Br)nc2)c1Br [II-015] | 100 |

Test system: Stellaria media
Experiment: Pre-emergence herbicidal effect against STEME
Format: in vivo
Conditions: 1280 g/ha, visual score after 3 weeks, 100% = plants have died, 0% = like control plants
Excerpt: as §1

| Structure (SMILES) | Pre-emergence action against STEME [%] |
| --- | --- |
| COC(=O)CNC(=O)CSc1nn(-c2ccccc2F)c(-c2ccc(F)c(F)c2)c1[N+](=O)[O-] [VII-004] | 100 |
| O=C(O)CSc1nn(-c2cccc(F)c2F)c(-c2cncnc2)c1Br [III-005] | 90 |
| CCOC(=O)CSc1nn(-c2ccccc2F)c(-c2ccc(Br)nc2)c1Br [II-015] | 100 |

Test system: Veronica persica
Experiment: Pre-emergence herbicidal effect against VERPE
Format: in vivo
Conditions: 1280 g/ha, visual score after 3 weeks, 100% = plants have died, 0% = like control plants
Excerpt: as §1

| Structure (SMILES) | Pre-emergence action against VERPE [%] |
| --- | --- |
| O=C(O)CSc1nn(-c2cccc(F)c2F)c(-c2cncnc2)c1Br [III-005] | 90 |

Test system: Echinochloa crus-galli
Experiment: Post-emergence herbicidal effect against ECHCG
Format: in vivo
Conditions: 1280 g/ha, visual score after about 3 weeks, 100% = plants have died, 0% = like control plants
Description: (§2) [table] 2. Post-emergence herbicidal effect and crop plant compatibility Seeds of monocotyledonous and dicotyledonous weed and crop plants are laid out in sandy loam soil in wood-fibre pots, covered with soil and cultivated in a greenhouse under good growth conditions. 2 to 3 weeks after sowing, the test plants are treated at the one-leaf stage. The compounds of the invention, formulated in the form of wettable powders (WP) or as emulsion concentrates (EC), are then sprayed onto the green parts of the plants as aqueous suspension or emulsion at a water application rate equating to 600 to 800 l/ha with addition of 0.2% wetting agent. After the test plants have been left to stand in the greenhouse under optimal growth conditions for about 3 weeks, the action of the preparations is assessed visually in comparison to untreated controls (herbicidal action in percent (%): 100% activity=the plants have died, 0% activity=like control plants).

| Structure (SMILES) | Post-emergence action against ECHCG [%] |
| --- | --- |
| O=C(O)CSc1nn(-c2cccc(F)c2F)c(-c2cncnc2)c1Br [III-005] | 90 |

Test system: Poa annua
Experiment: Post-emergence herbicidal effect against POAAN
Format: in vivo
Conditions: 1280 g/ha, visual assessment about 3 weeks after treatment, 100% = plants have died, 0% = like control plants
Description: as §2

| Structure (SMILES) | Post-emergence action against POAAN [%] |
| --- | --- |
| CCOC(=O)CSc1nn(-c2ccccc2F)c(-c2ccc(Br)nc2)c1Br [II-015] | 90 |

Test system: Abutylon threophrasti
Experiment: Post-emergence herbicidal effect against ABUTH
Format: in vivo
Conditions: 1280 g/ha, visual assessment about 3 weeks after treatment, 100% = plants have died, 0% = like control plants
Description: as §2

| Structure (SMILES) | Post-emergence action against ABUTH [%] |
| --- | --- |
| COC(=O)CN(C)C(=O)CSc1nn(-c2ccccc2F)c(-c2cccnc2)c1Br [VII-008] | 90 |
| O=C(O)CSc1nn(-c2cccc(F)c2F)c(-c2cncnc2)c1Br [III-005] | 90 |
| CCOC(=O)CSc1nn(-c2ccccc2F)c(-c2ccc(Br)nc2)c1Br [II-015] | 90 |

Test system: Bassia scoparia
Experiment: Post-emergence herbicidal effect against KCHSC
Format: in vivo
Conditions: 1280 g/ha, visual assessment about 3 weeks after treatment, 100% = plants have died, 0% = like control plants
Description: as §2

| Structure (SMILES) | Post-emergence action against KCHSC [%] |
| --- | --- |
| COC(=O)CN(C)C(=O)CSc1nn(-c2ccccc2F)c(-c2cccnc2)c1Br [VII-008] | 90 |
| O=C(O)CSc1nn(-c2cccc(F)c2F)c(-c2cncnc2)c1Br [III-005] | 90 |

Test system: Tripleurospermum inodorum
Experiment: Post-emergence herbicidal effect against MATIN
Format: in vivo
Conditions: 1280 g/ha, visual assessment about 3 weeks after treatment, 100% = plants have died, 0% = like control plants
Description: as §2

| Structure (SMILES) | Post-emergence action against MATIN [%] |
| --- | --- |
| O=C(O)CSc1nn(-c2cccc(F)c2F)c(-c2cncnc2)c1Br [III-005] | 90 |
| CCOC(=O)CSc1nn(-c2ccccc2F)c(-c2ccc(Br)nc2)c1Br [II-015] | 90 |

Test system: Veronica persica
Experiment: Post-emergence herbicidal effect against VERPE
Format: in vivo
Conditions: 1280 g/ha, visual assessment about 3 weeks after treatment, 100% = plants have died, 0% = like control plants
Description: as §2

| Structure (SMILES) | Post-emergence action against VERPE [%] |
| --- | --- |
| COC(=O)CN(C)C(=O)CSc1nn(-c2ccccc2F)c(-c2cccnc2)c1Br [VII-008] | 90 |
| O=C(O)CSc1nn(-c2cccc(F)c2F)c(-c2cncnc2)c1Br [III-005] | 90 |
| CCOC(=O)CSc1nn(-c2ccc(Cl)cc2Cl)c(-c2ccc(F)c(F)c2)c1Br [Example I-026] | 90 |
| CCOC(=O)CSc1nn(-c2ccccc2F)c(-c2ccc(Br)nc2)c1Br [II-015] | 90 |
